{"source": "patent US20230002446A1", "about": "“ANTI-INFLAMMATORY AGENTS” (The University of Sydney, priority 2019, published 2023)", "key": {"[1]": {"tested_on": "primary human blood derived macrophages", "experiment": "LPS- or imiquimod-stimulated human blood derived macrophages, cytokine ELISA", "assay_type": "cell-based", "conditions": "after stimulation with either LPS or imiquimod", "method": "FIG. 5—Peptide administration reduces the activation of pro-inflammatory DCs and macrophages. (A) C57BL/6 murine splenocytes were stimulated with LPS±peptide RP23 (SEQ ID NO:12) and expression of activation markers on DCs was assessed by flow cytometry. (B) Bone marrow derived murine macrophages were incubated with peptide RP23 (30 mins) and stimulated with LPS (overnight). Positive controls were stimulated with LPS only. Negative controls were unstimulated. Inflammatory cytokine production was assessed by ELISA. (C) CD14+ cells were isolated from human blood and differentiated into macrophages by culturing with human serum. Cells were incubated with peptide RP23 (30 mins), then stimulated overnight with LPS (left panel) or imiquimod (right panel). Inflammatory cytokine (IL-6 or IL-12/23) production was assessed by ELISA. Representative of 6 donors. Data are presented as mean±S.E.M. Statistical significance was determined by ANOVA with Dunnett's multiple comparison test, *p<0.05, **p<0.01, ***p<0.001.\nUsing an in vitro culture system, it was determined whether RP23 could suppress the activity of specific pro-inflammatory immune cells. […] The culture of murine bone marrow derived macrophages with RP23 led to reduced IL-6, MCP-1 and TNF release after LPS-stimulation (FIG. 5b). […]"}, "[2]": {"tested_on": "full thickness human skin explants", "quoted_text": "RP23^AF594 in a stock emulsion was applied topically to full thickness human skin explants and cultured for 24 hours. Frozen sections were analysed by fluorescence microscopy.\nRP23^AF594 was formulated for topical application in an adapted stock emulsion consisting of dimethicone, liquid paraffin, 4-chloro-3-methylphenol, cetrimide and octadecan-1-ol. This was applied topically (7 mg/cm^2, 10 nmol RP23) to full thickness human skin explants and cultured for 24 hours. Frozen sections were prepared for and analysed by fluorescence microscopy."}, "[3]": {"tested_on": "C57BL/6 mice", "experiment": "T-cell subsets by flow cytometry in imiquimod-induced psoriasis model", "assay_type": "in vivo", "method": "FIG. 11. RP23 treatment reduces TCRαβ^+ T-cells in the back skin and increases CD4^+ T-regulatory cells in the lymph nodes of mice in an imiquimod-induced psoriasis model. C57BL/6 female mice received PBS or RP23 injection at day −1, then Aldara cream (5% imiquimod, 57.5 mgs) was applied daily (days 0-4) to the backs to induce psoriasis. At day 15, skin and inguinal lymph nodes were analysed by flow cytometry to quantitate (A) T-cell subsets as a proportion of total leukocytes (CD45^+) in the psoriatic back skin, (B) number of CD3^+CD4^+ TCRαβ T-cells in the skin draining lymph nodes (inguinal), with transcription factor staining, to identify cells with a regulatory phenotype (FoxP3^+). Data are the means+/−SEM (n=4-5). Statistical significance was determined by multiple t-tests, *p<0.05.\nC57BL/6 female mice received PBS or RP23 injection at day −1, then Aldara cream (5% imiquimod, 57.5 mgs) was applied daily (days 0-4) to the backs of mice to induce psoriasis. At day 15, skin and inguinal lymph nodes were analysed by flow cytometry to quantitate T-cell subsets as a proportion of total leukocytes (CD45+) in the psoriatic back skin, (FIG. 11A).\nCD3+CD4+ TCRαβ T-cells in the skin draining lymph nodes (inguinal) were phenotyped by transcription factor staining and flow cytometry to identify cells with a regulatory phenotype (i.e., FoxP3+)."}}, "note": "Where a SMILES comes first, the peptide text is derived from it. [ ]: non-standard residue; d: D form. AEEA = NCCOCCOCC(=O)O", "data": [{"molecule": "CSCC[C@H](NC(=O)COCCOCCNC(=O)[C@H](CCCCN)NC(=O)[C@H](CCCCN)NC(=O)[C@H](CCCCN)NC(=O)[C@@H](N)CCCCN)C(=O)N[C@H](C(=O)N1CCC[C@H]1C(=O)NCC(=O)N[C@H](C(=O)N[C@@H](CCC(N)=O)C(=O)N[C@@H](CO)C(=O)N1CCC[C@H]1C(=O)N[C@@H](Cc1ccccc1)C(=O)N[C@@H](Cc1ccccc1)C(=O)N[C@@H](CC(C)C)C(=O)N[C@@H](CC(C)C)C(=O)N[C@@H](CC(C)C)C(=O)N[C@@H](CC(C)C)C(=O)N[C@@H](CC(C)C)C(=O)N[C@H](C(=O)N[C@H](C(=O)N[C@@H](CC(C)C)C(=O)N[C@H](C(=O)N[C@H](C(=O)N[C@H](C(=O)O)C(C)C)C(C)C)[C@@H](C)O)C(C)C)[C@@H](C)O)[C@@H](C)O)[C@@H](C)O", "note": "[RP23] (H-KKKK[AEEA]MTPGTQSPFFLLLLLTVLTVV-OH)", "values": [{"measurement": "IL-6 release", "setting": "[1]", "result": "reduced"}, {"measurement": "IL-12/23 release", "setting": "[1]", "result": "reduced"}, {"measurement": "penetration of human skin when topically applied", "setting": "[2]", "result": "able to penetrate the stratum corneum and basement membrane"}, {"measurement": "TCRαβ+ T-cells in the skin of psoriatic mice", "setting": "[3]; FIG. 11A", "result": "reduction in TCRαβ+ T-cells"}, {"measurement": "number of FoxP3-expressing CD3+CD4+ TCRαβ T-cells in skin draining lymph nodes", "setting": "[3]; inguinal lymph nodes, day 15, with or without T-bet or Rorγt", "result": "significant increase"}, {"measurement": "proportion of total CD4+ and CD8+ T-cells in the back skin", "setting": "[3]; injection day -1, day 15, proportion of CD45+ leukocytes", "result": "reduced the proportion of total CD4+ and CD8+ T-cells"}]}]}
